Data on 42 compounds can be found in patent US10266526B2, “Substituted 1,2,3-triazoles as SMYD inhibitors for treating cancer” (EPIZYME, INC., priority 2014, dated 2019).

SMYD3, sequence (Q9H7B4 whole entry): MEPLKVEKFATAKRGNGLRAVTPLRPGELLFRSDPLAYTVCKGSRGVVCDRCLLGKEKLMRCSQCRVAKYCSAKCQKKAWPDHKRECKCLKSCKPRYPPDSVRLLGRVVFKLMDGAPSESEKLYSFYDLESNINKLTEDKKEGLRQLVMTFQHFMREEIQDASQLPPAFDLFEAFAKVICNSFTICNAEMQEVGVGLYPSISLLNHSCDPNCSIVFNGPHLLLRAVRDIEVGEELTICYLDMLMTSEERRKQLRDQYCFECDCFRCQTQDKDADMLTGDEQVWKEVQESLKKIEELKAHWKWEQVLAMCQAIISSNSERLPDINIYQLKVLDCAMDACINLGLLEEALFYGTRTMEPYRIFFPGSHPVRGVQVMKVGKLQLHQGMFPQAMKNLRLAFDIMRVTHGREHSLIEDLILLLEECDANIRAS

The target of one experiment is SMYD3 (Homo sapiens (Human), UniProt Q9H7B4). Kind of experiment: SMYD3 biochemical assay (SMYD3 enzyme assay on MEKK2 protein substrate, 3H-SAM scintillation proximity assay). To be noted: Table 1A; average of n = 1 to n = 50; read-out: SMYD3 Biochem IC50. The procedure, abridged:
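Detection used scintillation proximity beads to capture ³H-methylated GST-MEKK2 after quench with 100 uM final cold SAM. The reaction was started by SAM/MEKK2 addition after a 30 min RT compound–enzyme preincubation. Enzyme was tag-free full-length human SMYD3 from E. coli, in buffer of 25 mM Tris-Cl pH 8.0, 1 mM TCEP, 0.005% BSG, 0.005% Tween 20.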
For orientation: Scintillation proximity formats need no separation of bound from free tracer.
As for `N[C@H]1CC[C@H](NC(=O)c2n[nH]c(=O)[nH]2)CC1` [compound 531, N-((1r,4r)-4-aminocyclohexyl)-5-oxo-4,5-dihydro-1H-1,2,4-triazole-3-carboxamide], the half-maximal inhibitory concentration (IC50) – broadly, the concentration that inhibits the measured activity by half – is greater than 50 µM. On the same count and under the same terms, then `CCc1nc(C(=O)N[C@H]2CC[C@H](N)CC2)n[nH]1` [compound 535, N-((1r,4r)-4-aminocyclohexyl)-5-ethyl-1H-1,2,4-triazole-3-carboxamide], with greater than 50 µM; and `C[C@@H]1C[C@@H](NC(=O)c2ccccc2)CCN1C(=O)C1CCC(N)CC1` (mixture of isomers) [compound 557, (±)-trans-N-(1-(4-aminocyclohexane-1-carbonyl)-2-methylpiperidin-4-yl)benzamide], with greater than 10 µM.

Staying with this experiment, now noted: read-out: SMYD3 Biochem IC50.
As for `CC1Oc2ccc(C(=O)N[C@H]3CC[C@H](N)CC3)cc2NC1=O` (stereo partly drawn) [compound 452, N-((1r,4r)-4-aminocyclohexyl)-2-methyl-3-oxo-3,4-dihydro-2H-benzo[b][1,4]oxazine-6-carboxamide], the IC50 was 39.1 µM. For `CC(NC(=O)c1ccc(O)nc1)C1CCN(C(=O)[C@H](C)N)CC1` (stereo partly drawn) [compound 378, N-(1-(1-(L-alanyl)piperidin-4-yl)ethyl)-6-hydroxynicotinamide], the IC50 was greater than 100 µM.

For the compound `NCCC(=O)N[C@H]1CC[C@H](NC(=O)c2cnccc2N)CC1` [compound 288, 4-amino-N-((1r,4r)-4-(3-aminopropanamido)cyclohexyl)nicotinamide], the IC50 is greater than 100 µM.

As for `NCCC(=O)N[C@H]1CC[C@H](NC(=O)c2cc(O)nc3ccccc23)CC1` [compound 200, N-((1r,4r)-4-(3-aminopropanamido)cyclohexyl)-2-hydroxyquinoline-4-carboxamide], the IC50 worked out at 23.3 µM. The same measure, in the same setting: next, `CC(NC(=O)Cc1cccc(C(F)(F)F)c1)C1CCN(C(=O)[C@H](C)N)CC1` (stereo partly drawn) [compound 476, N-(1-(1-(L-alanyl)piperidin-4-yl)ethyl)-2-(3-(trifluoromethyl)phenyl)acetamide]: 51.1 µM. Same read-out and setting: next, `NCCC(=O)N[C@H]1CC[C@H](NC(=O)c2cn3ncccc3n2)CC1` [compound 446, N-((1r,4r)-4-(3-aminopropanamido)cyclohexyl)imidazo[1,2-b]pyridazine-2-carboxamide]: greater than 100 µM; `CC(NC(=O)c1ccnn1C)C1CCN(C(=O)[C@H](C)N)CC1` (stereo partly drawn) [compound 413, N-(l-(1-(L-alanyl)piperidin-4-yl)ethyl)-1-methyl-1H-pyrazole-5-carboxamide]: greater than 100 µM. On the same count and under the same terms, next, `N[C@H]1CC[C@H](NC(=O)c2noc(C3CC3)n2)CC1` [compound 484, N-((1r,4r)-4-aminocyclohexyl)-5-cyclopropyl-1,2,4-oxadiazole-3-carboxamide]: 85.7 µM.

Turning to `N[C@H]1CC[C@H](NC(=O)C2C[C@@H]3C=C[C@H]2C3)CC1` (stereo partly drawn) [compound 417, (1r,4r)-N-((1r,4R)-4-aminocyclohexyl)bicyclo[2.2.1]hept-5-ene-2-carboxamide], the IC50 was greater than 100 µM. Same read-out and setting: then `N[C@H]1CC[C@H](NC(=O)c2cncc(O)c2)CC1` [compound 515, N-((1r,4r)-4-aminocyclohexyl)-5-hydroxynicotinamide], with greater than 50 µM; and `COc1ccc2cc(C(=O)N[C@H]3CC[C@H](N)CC3)ccc2c1` [compound 276, N-((1r,4r)-4-aminocyclohexyl)-6-methoxy-2-naphthamide], with greater than 100 µM.

Consider `NCCC(=O)N[C@H]1CC[C@H](NC(=O)c2cc3ccccc3nc2O)CC1` [compound 456, N-((1r,4r)-4-(3-aminopropanamido)cyclohexyl)-2-hydroxyquinoline-3-carboxamide], for which the IC50 was found to be 22 µM.

For the compound `CC(NC(=O)c1cc(O)c2ccccc2n1)C1CCN(C(=O)[C@H](C)N)CC1` (stereo partly drawn) [compound 225, N-(1-(1-(L-alanyl)piperidin-4-yl)ethyl)-4-hydroxyquinoline-2-carboxamide], the IC50 was greater than 100 µM.

As to `CC(NC(=O)c1ccc(Cl)cc1C(F)(F)F)C1CCN(C(=O)[C@H](C)N)CC1` (stereo partly drawn) [compound 263, N-(1-(1-(L-alanyl)piperidin-4-yl)ethyl)-4-chloro-2-(trifluoromethyl)benzamide], the IC50 was greater than 100 µM.

Turning to `NCCC(=O)N[C@H]1CC[C@H](NC(=O)c2cnccn2)CC1` [compound 252, N-((1r,4r)-4-(3-aminopropanamido)cyclohexyl)pyrazine-2-carboxamide], the IC50 worked out at 37.4 µM. On the same count and under the same terms, next, `CC(NC(=O)[C@H]1CC[C@H](N)CC1)C1CCN(C(=O)[C@H](C)N)CC1` (stereo partly drawn) [compound 262, (1r,4S)-N-(1-(1-(L-alanyl)piperidin-4-yl)ethyl)-4-aminocyclohexane-1-carboxamide]: greater than 100 µM; `N[C@H]1CC[C@H](NC(=O)c2cc(O)c3ccccc3n2)CC1` [compound 328, N-((1r,4r)-4-aminocyclohexyl)-4-hydroxyquinoline-2-carboxamide]: greater than 100 µM; `CC(NC(=O)c1ccc2nccc(N)c2c1)C1CCN(C(=O)[C@H](C)N)CC1` (stereo partly drawn) [compound 212, N-(1-(1-(L-alanyl)piperidin-4-yl)ethyl)-4-aminoquinoline-6-carboxamide]: 15.2 µM. On the same count and under the same terms, then `Cn1ccnc1C(=O)N[C@H]1CC[C@H](NC(=O)CCN)CC1` [compound 412, N-((1r,4r)-4-(3-aminopropanamido)cyclohexyl)-1-methyl-1H-imidazole-2-carboxamide], with greater than 100 µM; and `CC(NC(=O)CCCn1ccnc1)C1CCN(C(=O)[C@H](C)N)CC1` (stereo partly drawn) [compound 241, N-(1-(1-(L-alanyl)piperidin-4-yl)ethyl)-4-(1H-imidazol-1-yl)butanamide], with 82.9 µM.

With `CC(NC(=O)c1ccc(N)cn1)C1CCN(C(=O)[C@H](C)N)CC1` (stereo partly drawn) [compound 357, N-(1-(1-(L-alanyl)piperidin-4-yl)ethyl)-5-aminopicolinamide], the 50% inhibitory concentration (IC50) is greater than 100 µM.

Consider `N[C@H]1CC[C@H](NC(=O)c2cc3ccccc3nc2O)CC1` [compound 475, N-((1r,4r)-4-aminocyclohexyl)-2-hydroxyquinoline-3-carboxamide], for which the IC50 stood at 22.2 µM. Regarding `CC(NC(=O)c1ccc(-n2cncn2)cc1)C1CCN(C(=O)[C@H](C)N)CC1` (stereo partly drawn) [compound 472, N-(1-(1-(L-alanyl)piperidin-4-yl)ethyl)-4-(1H-1,2,4-triazol-1-yl)benzamide], the IC50 was greater than 100 µM. Still for that read-out and setting: next, `NCCC(=O)N[C@H]1CC[C@H](NC(=O)c2ccc(-n3cncn3)cc2)CC1` [compound 473, N-((1r,4r)-4-(3-aminopropanamido)cyclohexyl)-4-(1H-1,2,4-triazol-1-yl)benzamide]: 53.1 µM.

Staying with this experiment, now noted: read-out: SMYD3 Biochem IC50 (μM)*.
As to `NCCC(=O)N[C@H]1CC[C@H](NC(=O)c2ccc3cnccc3c2)CC1` [compound 165, N-((1r,4r)-4-(3-aminopropanamido)cyclohexyl)isoquinoline-6-carboxamide], the IC50 was found to be 15.5 µM.

On to `NCCC(=O)N[C@H]1CC[C@H](NC(=O)c2cccnc2)CC1` [compound 142, N-((1r,4r)-4-(3-aminopropanamido)cyclohexyl)nicotinamide], for which the IC50 was greater than 100 µM. `N[C@H]1CC[C@H](NC(=O)c2ccc3nc(O)ccc3c2)CC1` [compound 76, N-((1r,4r)-4-aminocyclohexyl)-2-hydroxyquinoline-6-carboxamide]: the IC50 came to 115 µM. On the same count and under the same terms, then `CN(C(=O)CCN)C1CCC(NC(=O)c2ccc3c(c2)CC(=O)N3)CC1` (stereo not drawn) [compound 178, N-(4-(3-amino-N-methylpropanamido)cyclohexyl)-2-oxoindoline-5-carboxamide], with 3.4 µM. The same measure, in the same setting: next, `CC(=O)Nc1ccc(S(=O)(=O)N2CCC(NC(=O)c3cc[nH]n3)CC2)cc1` [compound 6, N-(1-((4-acetamidophenyl)sulfonyl)piperidin-4-yl)-1H-pyrazole-3-carboxamide]: greater than 100 µM; `N[C@H]1CC[C@H](NC(=O)c2ccc3c(c2)OCC(=O)N3)CC1` [compound 19, N-((1r,4r)-4-aminocyclohexyl)-3-oxo-3,4-dihydro-2H-benzo[b][1,4]oxazine-7-carboxamide]: 102 µM; `O=C(NC1CCNCC1)c1ccc2ncc(=O)[nH]c2c1` [compound 46, 3-oxo-N-(piperidin-4-yl)-3,4-dihydroquinoxaline-6-carboxamide]: 63.7 µM. Same read-out and setting: next, `CC(NC(=O)c1cccnc1)C1CCN(C(=O)[C@H](C)N)CC1` (stereo partly drawn) [compound 141, N-(1-(1-(L-alanyl)piperidin-4-yl)ethyl)nicotinamide]: greater than 100 µM; `CCc1ccc(C(=O)Nc2ccc(CN)cc2)s1` [compound 56, N-(4-(aminomethyl)phenyl)-5-ethylthiophene-2-carboxamide]: 138 µM; `N[C@H]1CC[C@H](NC(=O)c2ccc3cnccc3c2)CC1` [compound 166, N-((1r,4r)-4-aminocyclohexyl)isoquinoline-6-carboxamide]: 20.7 µM.

With `Cc1cc(C(=O)N[C@H]2CC[C@H](N)CC2)n(-c2ccccc2)n1` [compound 28, N-((1r,4r)-4-aminocyclohexyl)-3-methyl-1-phenyl-1H-pyrazole-5-carboxamide], the concentration for half-maximal inhibition (IC50) came out at 111 µM. Still for that read-out and setting: next, `CC(=O)Nc1ccc(S(=O)(=O)N2CCC(NC(=O)c3cn(C)cn3)CC2)cc1` [compound 9, N-(1-((4-acetamidophenyl)sulfonyl)piperidin-4-yl)-1-methyl-1H-imidazole-4-carboxamide]: 60.5 µM; `CC(=O)Nc1ccc(S(=O)(=O)N2CCC(NC(=O)c3ccnn3C)CC2)cc1` [compound 7, N-(1-((4-acetamidophenyl)sulfonyl)piperidin-4-yl)-1-methyl-1H-pyrazole-5-carboxamide]: greater than 100 µM. Take `N[C@H]1CC[C@H](NC(=O)Cc2cccnc2)CC1` [compound 129, N-((1r,4r)-4-aminocyclohexyl)-2-(pyridin-3-yl)acetamide]: the IC50 is greater than 100 µM.

Turning to `CC(=O)c1cccc(C(=O)N[C@H]2CC[C@H](N)CC2)c1` [compound 23, 3-acetyl-N-((1r,4r)-4-aminocyclohexyl)benzamide], the IC50 turned out to be 91.5 µM.
